Source: publication PMC9289672, “Optimization of Antibacterial Activity in Tibetan Swine α-Helix Peptide TP by Site-Directed Mutagenesis” (Frontiers in Microbiology, 2022)
Where no end group is shown, it is not given here.

Key:
[1] = system: Enterococcus faecalis ATCC 29212
From the text: (§1) The bacteria strains Escherichia coli ATCC 25922, Escherichia coli UB1005, Salmonella typhimurium ATCC 14028, Salmonella typhimurium C7731, Pseudomonas aeruginosa ATCC 27853, Pseudomonas aeruginosa PAO1, Staphylococcus aureus ATCC 29213, Staphylococcus aureus ATCC 25923, Methicillin-resistant Staphylococcus aureus (MRSA) 43300, Enterococcus faecalis ATCC 29212, and Staphylococcus epidermidis ATCC 12228 were obtained from the College of Veterinary Medicine, Northeast Agricultural University (Harbin, China).
(§2) The bacteria were cultured overnight in the MHB medium and transferred to the new MHB the next day until the bacteria reached the exponential growth stage. The bacteria were diluted with MHB to 2 × 10^5 CFU/ml. About 50 μl of polypeptide and equal volume of bacterial suspension was added to a 96-well plate to give the final concentration of polypeptide between 1 and 128 μm. The last two columns are negative (MHB only) and positive (bacterial and MHB) controls and incubated at 37°C for 18–24 h. Optical density was measured at an absorbance wavelength of 492 nm using a microplate reader (Tecan GENios F129004, Tecan, Austria). At least three independent measurements were taken. Each trial was conducted two times in parallel. A total of three independent assays were carried out.

[2] = system: Escherichia coli ATCC 25922
From the text: as §1, §2

[3] = system: Methicillin-resistant Staphylococcus aureus (MRSA) 43300; details: Methicillin-resistant 43300
From the text: as §1, §2

[4] = system: Pseudomonas aeruginosa ATCC 27853
From the text: as §1, §2

[5] = system: Pseudomonas aeruginosa PAO1
From the text: as §1, §2

[6] = system: Salmonella typhimurium ATCC 14028
From the text: as §1, §2

[7] = system: Staphylococcus aureus ATCC 25923
From the text: as §1, §2

[8] = system: Staphylococcus aureus ATCC 29213
From the text: as §1, §2

[9] = system: Staphylococcus epidermidis ATCC 12228
From the text: as §1, §2

Gram-negative bacteria = test: Geometric mean of MIC and therapeutic index; format: cell-based; details: for Therapeutic index (TI), Gram-negative bacteria: MHC/GM, 128 μm used when 50% hemolysis not observed at 128 μm
Description: as §2
(§3) Trp is a hydrophobic amino acid with aromatic side chains. It is a special amino acid in peptide design. Previous studies have pointed out that introducing amino acids will also bring toxicity while improving activity. […] For further evaluating the cell selectivity of the peptides, we also calculated the SI which defined as the ratio of MHC to the geometric mean (GM) (Dufourc, [2008]).

Gram-positive bacteria = test: Geometric mean of MIC and therapeutic index; format: cell-based; details: for Therapeutic index (TI), Gram-positive bacteria: MHC/GM, 128 μm used when 50% hemolysis not observed at 128 μm
Description: as §2, §3

all strains in Table 2 = test: Geometric mean of MIC and therapeutic index; format: cell-based; details: for Therapeutic index (TI) / selectivity index (SI), All: MHC/GM, 128 μm used when 50% hemolysis not observed at 128 μm
Description: as §2
Trp is a hydrophobic amino acid with aromatic side chains. It is a special amino acid in peptide design. Previous studies have pointed out that introducing amino acids will also bring toxicity while improving activity. Therefore, at the beginning of the design, we predicted that selecting Trp as hydrophobic amino acid to substitute H-H position would bring certain toxicity to the peptide. Thus, as expected, the introduction of Trp increases the activity and toxicity of these peptides. […] Meanwhile, the virulence of TP(i+4) 1&2&5&6 and TP(i+4) 1&2&6&7 was lower than that of TP(i+4) 1&2&5&7. We infer that the location of hydrophobic centers can effectively reduce peptide toxicity by Trp substitution. For further evaluating the cell selectivity of the peptides, we also calculated the SI which defined as the ratio of MHC to the geometric mean (GM) (Dufourc, [2008]).

[10] = system: hRBCs (human red blood cells)
Description: The cytotoxicity of each peptide was assessed with IPEC-J12 and HEK 293T cells. […] Each trial was conducted two times in parallel. A total of three independent assays were carried out.

Escherichia coli UB1005 = details: MHB, bacteria diluted to 2 × 10^5 CFU/ml, peptide 1-128 μm, 37°C 18-24 h, OD 492 nm; three independent assays, two in parallel
From the text: as §1, §2

[11] = system: Salmonella typhimurium C7731; details: MHB, bacteria diluted to 2 × 10^5 CFU/ml, peptide 1-128 μm, 37°C 18-24 h, OD 492 nm; three independent assays, two in parallel
From the text: as §1, §2

[12] = strains of Table 2, 128 μm used when no activity at 128 μm

Substance	MIC, E. faecalis 29212 [1]	MIC, E. coli 25922 [2]	MIC, S. aureus 43300 [3]	MIC, P. aeruginosa 27853 [4]	MIC, P. aeruginosa PAO1 [5]	MIC, S. typhimurium 14028 [6]	MIC, S. aureus 25923 [7]	MIC, S. aureus 29213 [8]	MIC, S. epidermidis 12228 [9]	Geometric mean (GM) of MIC, Gram-negative bacteria (Gram-negative bacteria; [12])	Geometric mean (GM) of MIC, Gram-positive bacteria (Gram-positive bacteria; [12])	Geometric mean (GM) of MIC, All (all strains in Table 2; all strains in Table 2, 128 μm used when no activity at 128 μm)	MHC (concentration of peptide that causes hemolysis of 50% of human red blood cells) [10]	MIC, E. coli UB1005 (Escherichia coli UB1005)	MIC, S. typhimurium 7731 [11]	Therapeutic index (TI), Gram-negative bacteria (Gram-negative bacteria)	Therapeutic index (TI), Gram-positive bacteria (Gram-positive bacteria)	Therapeutic index (TI) / selectivity index (SI), All (all strains in Table 2)
AKVVKKLTKGVAGLLK-NH2 [TP(i+4) 1&3]	>128 µM	64 µM	>128 µM	128 µM	64 µM	>128 µM	>128 µM	>128 µM	>128 µM	71.84 µM	128.00 µM	95.89 µM	>128 µM	–	–	–	–	–
AKVVKKLTKGVAKLLK-NH2 [TP(i+4) 1&2&3]	>128 µM	32 µM	>128 µM	64 µM	16 µM	128 µM	>128 µM	>128 µM	>128 µM	–	–	–	>128 µM	8 µM	64 µM	3.56	1.00	1.89
AKVVNKLTGGVAGLLK-NH2 [TP(i+4) 3]	>128 µM	>128 µM	>128 µM	>128 µM	>128 µM	>128 µM	>128 µM	>128 µM	>128 µM	–	–	–	>128 µM	>128 µM	>128 µM	1.00	1.00	1.00
AKVVNKLTGKVAGLLK-NH2 [TP(i+4) 3&4]	>128 µM	128 µM	>128 µM	>128 µM	128 µM	>128 µM	>128 µM	>128 µM	>128 µM	–	–	–	>128 µM	64 µM	>128 µM	1.12	1.00	1.06
AKVVNKLTKKVAKLLK-NH2 [TP(i+4) 2&3&4]	>128 µM	16 µM	>128 µM	128 µM	8 µM	64 µM	>128 µM	>128 µM	>128 µM	–	–	–	>128 µM	16 µM	64 µM	4.00	1.00	2.00
ASVVKKLTKGVAGLLK-NH2 [TP(i+4) 1]	>128 µM	16 µM	>128 µM	64 µM	64 µM	128 µM	>128 µM	>128 µM	>128 µM	–	–	–	>128 µM	16 µM	64 µM	2.83	1.00	1.68
ASVVKKLTKKVAGLLK-NH2 [TP(i+4) 1&4]	>128 µM	8 µM	>128 µM	32 µM	16 µM	64 µM	>128 µM	>128 µM	>128 µM	–	–	–	>128 µM	8 µM	32 µM	–	1.00	2.56
ASVVKKLTKKVAKLLK-NH2 [TP(i+4) 1&2&4]	>128 µM	4 µM	>128 µM	32 µM	8 µM	64 µM	>128 µM	>128 µM	>128 µM	–	–	–	>128 µM	4 µM	32 µM	8.90	1.00	2.98
ASVVNKLTGGVAGLLK-NH2 [TP, reference compound]	>128 µM	>128 µM	>128 µM	>128 µM	>128 µM	>128 µM	>128 µM	>128 µM	>128 µM	–	–	–	>128 µM	>128 µM	>128 µM	1.00	1.00	1.00
ASVVNKLTGKVAGLLK-NH2 [TP(i+4) 4]	>128 µM	16 µM	>128 µM	64 µM	64 µM	128 µM	>128 µM	>128 µM	>128 µM	–	–	–	>128 µM	16 µM	64 µM	2.83	1.00	1.68
ASVVNKLTKGVAKLLK-NH2 [TP(i+4) 2]	>128 µM	16 µM	>128 µM	64 µM	32 µM	128 µM	>128 µM	>128 µM	>128 µM	–	–	–	>128 µM	8 µM	64 µM	3.56	1.00	1.89
